Earlier results, collected in patent US7456023B2, “Reagent for luminescence optical determination of an analyte” (Roche Diagnostics Operations, Inc., priority 2000, dated 2008).

Columns and labels:
[1] = for Absorption wavelength, deprotonated: deprotonated form; for Absorption wavelength, protonated: protonated form

Row | Compound | Absorption wavelength, deprotonated [1] | Absorption wavelength, protonated [1] | pKa
1 | O=C1OC(c2ccc(O)c3ccccc23)(c2ccc(O)c3ccccc23)c2ccccc21 [Naphthol-phthalein] | 661 nm | 428 nm | 
2 | O=C1C=CC(=Nc2ccc(O)cc2)C=C1Cl [o-chlorophenol-indophenol] | 625 nm | 555 nm | 
3 | Cc1c(C2(c3cc(C(C)C)c(O)c(Br)c3C)OS(=O)(=O)c3ccccc32)cc(C(C)C)c(O)c1Br [Bromothymol blue] | 615-618 nm | 430-435 nm | 
4 | Cc1ccc(O)c(N=Nc2c(O)cc(S(=O)(=O)O)c3ccccc23)c1 [Calmagit] | 605 nm | 530 nm | 
5 | Nitrazine yellow | 590 nm | 460 nm | 6.5
6 | O=S1(=O)OC(c2cc(Br)c(O)c(Br)c2)(c2cc(Br)c(O)c(Br)c2)c2ccccc21 [Bromophenol blue] | 617 nm | 430 nm | 
7 | Dibromoxylenol blue | 614 nm | 420 nm | 
